Assays:
[1] = toxicity, expressed as LD50, oral; conditions: in vivo
SHR rat = assay: anti-hypertensive activity in the SHR rat by oral route (with heart rate); assay type: in vivo
From the text: (§1) Bremner, Eur. J. Pharmacol 55, 323 (1979) and D. C. U. Prichard et al, Mol. Pharmacol 13, 454 (1977), while in vivo they seem to have a low toxicity and a good and durable anti-hypertensive activity, determined in the SHR rat by oral route, with the method reported by J Pfeffer et al, J. Lab. Clin. Med. 78, 957 (1971).

α2 receptors = assay: in vitro action on the α2 receptors, determined in respect of [^3 H]-Clonidine; assay type: binding
From the text: as §1

α1 receptors = assay: in vitro affinity for the α1 receptors, determined in respect of [^3 H]-Prazosin; assay type: binding
From the text: as §1

Row | Structure (SMILES) | LD50 [1] [mg/kg] | effect on heart rate (SHR rat; 30 mg/kg/os dosage) | reduction in the pressure (SHR rat; SHR rat, 30 mg/kg/os dosage) [%] | IC50 (α2 receptors) [nM] | IC50 (α1 receptors) [nM] | effect on heart rate (SHR rat; 20 mg/kg/os dosage) | reduction of the pressure (SHR rat; SHR rat, 20 mg/kg/os dosage) [%]
1 | COc1cc2nc(N3CCN(CC(O)C4(C)COc5ccccc5O4)CC3)nc(N)c2cc1OC.Cl (stereo not shown) [1-(4-amino-6,7-dimethoxyquinazolin-2-yl)-4-[2-(2,3-dihydro-2-methyl-1,4-benzodioxin-2-yl)-2-hydroxyethyl]-piperazine hydrochloride] | > 2000 | without significantly modifying the heart rate | 20 | > 10000 | 3.6 | – | –
2 | CC1(C(O)CN2CCC(n3c(=O)[nH]c4ccccc43)CC2)COc2ccccc2O1 (racemic) [1-[2-(2,3-dihydro-2-methyl-1,4-benzodioxin-2-yl)-2-hydroxy-ethyl]-4-piperidinyl]-1,3-dihydro-2H-benzimidazol-2-one] | ~1000 | – | – | 18000 | 55 | without significantly varying the heart rate | 21

Reference: patent publication US4948797A, “2,2-disubstitued 2,3-dihydro-1,4-benzodioxin derivatives having hypotensive activity” (Istituto Luso Farmaco d'Italia S.p.A., priority 1988, dated 1990)
